Some test systems named below: MDA-N; NCI-H460; CAKI-1; UACC-62; LOX IMVI; NCI-H23; OVCAR-4; SK-MEL-5; SNB-75; 786-0; SN12C; CCRF-CEM; HCC 2998; HL-60; SR; BT-549; MCF7; A549; SF-295; A498.
Experiment in all cases: growth of human tumour cells (NCI), 48 h

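Briefly, cells in 96-well plates were exposed to five compound concentrations for 48 h, and endpoints were estimated by linear interpolation. At the GI50, growth is halved.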 Activity calls are given as the source filed them. Cut-off read from the data, not from the text of the source: active = GI50 up to about 1.1 µM and inactive = higher. A value given as a limit tells only on which side of the number the result lay.

As to `CCC12C=CCN3CCC4(c5cc(C(c6ccc(OC)cc6)C6Cc7ccccc7N6)c(OC)cc5N(C)C4C(O)(C(=O)OC)C1O)C32` (stereo not given), the GI50 in the test with MDA-N is 18.8 µM (inactive); in the test with NCI-H460 it was 17.6 µM (inactive); in the test on CAKI-1 it was 18.7 µM (inactive); with UACC-62, 11.8 µM (inactive); in the test with LOX IMVI it was 14.1 µM (inactive); with NCI-H23 it was 27 µM (inactive). Moreover, the GI50 with OVCAR-4 was 9.33 µM (inactive); in the test on SK-MEL-5 it was 12.1 µM (inactive); in the test with SNB-75 it was 3.66 µM (inactive); in the test on 786-0, 18.7 µM (inactive); in the test with SN12C, 37.4 µM (inactive); in the test on CCRF-CEM it was 3.67 µM (inactive). The GI50 in the test on HCC 2998 is 20 µM (inactive); in the test with HL-60 it was 1.72 µM (inactive); in the test with SR, 8.04 µM (inactive); with BT-549, 19.9 µM (inactive); in the test with MCF7, 5.19 µM (inactive); with A549, 20.4 µM (inactive). Also, the GI50 is 18.3 µM (inactive) in the test on SF-295 and 11.6 µM (inactive) with A498.
Turning to `CC1=NN(c2nc(N)nc(/C(C#N)=C/c3ccc([N+](=O)[O-])o3)n2)C(C)(C)C1`, the GI50 in the test on MDA-N is 3.05 µM (inactive); in the test with NCI-H460, 2.57 µM (inactive); in the test on CAKI-1, 1.85 µM (inactive); with UACC-62, 2.19 µM (inactive); in the test with LOX IMVI, 1.73 µM (inactive); in the test on NCI-H23 it was 3.45 µM (inactive). Besides, the GI50 with OVCAR-4 was 10.2 µM (inactive); in the test with SK-MEL-5 it was 5.4 µM (inactive); in the test on SNB-75, 2.85 µM (inactive); with 786-0, 1.57 µM (inactive); in the test on SN12C it was 1.88 µM (inactive); in the test with CCRF-CEM, 1.3 µM (inactive). In addition, the GI50 in the test with HCC 2998 is 15.8 µM (inactive); with HL-60 it was 2.35 µM (inactive); with SR it was 2.58 µM (inactive); in the test on BT-549, 3.34 µM (inactive); in the test on MCF7, 1.69 µM (inactive); in the test with A549, 13.1 µM (inactive). Besides, the GI50 in the test on SF-295 is 16.5 µM (inactive); in the test on A498 it was 17.8 µM (inactive).
On to `COC12C(COC(=O)NCCO)C3=C(C(=O)C(C)=C(N)C3=O)N1CC1NC12` (stereo not given), for which the GI50 in the test with MDA-N is 86.1 µM (inactive); in the test on NCI-H460 it was 5.01 µM (inactive); with CAKI-1 it was 2.77 µM (inactive); with UACC-62 it was 8.11 µM (inactive); in the test with LOX IMVI, 13.8 µM (inactive); in the test on NCI-H23 it was 4.94 µM (inactive). The GI50 was 65.8 µM (inactive) in the test on OVCAR-4; 14.2 µM (inactive) in the test on SK-MEL-5; 17.4 µM (inactive) in the test with SNB-75; 20.9 µM (inactive) in the test on 786-0; 7.94 µM (inactive) in the test with SN12C; 12.1 µM (inactive) in the test on CCRF-CEM. The GI50 in the test with HCC 2998 is 34.8 µM (inactive); with HL-60, 58.9 µM (inactive); in the test with SR, 35.2 µM (inactive); in the test on BT-549 it was 54.5 µM (inactive); in the test with MCF7, 16 µM (inactive); in the test on A549 it was 7.66 µM (inactive). Moreover, the GI50 with SF-295 is 6.62 µM (inactive); in the test on A498, 60.7 µM (inactive).
Consider `CC(=O)OC1C(C)OC(OC2C[C@](O)(C(C)=O)Cc3c(O)c4c(c(O)c32)C(=O)c2ccccc2C4=O)C(F)C1OC(C)=O` (stereo not given in full), for which the GI50 was 1.88 µM (inactive) in the test with MDA-N; 0.0353 µM (active) in the test on NCI-H460; 0.13 µM (active) in the test on CAKI-1; 0.387 µM (active) in the test on UACC-62; 0.156 µM (active) with LOX IMVI; 0.245 µM (active) in the test with NCI-H23. Further, the GI50 was 3.74 µM (inactive) in the test on OVCAR-4; 0.408 µM (active) in the test on SK-MEL-5; 0.417 µM (active) with SNB-75; 0.287 µM (active) in the test with 786-0; 0.281 µM (active) in the test on SN12C; 0.197 µM (active) with CCRF-CEM. The GI50 is 1.91 µM (inactive) in the test on HCC 2998; 0.154 µM (active) in the test on HL-60; 0.101 µM (active) in the test on SR; 1.04 µM (active) in the test with BT-549; 0.0474 µM (active) with MCF7; 0.154 µM (active) in the test on A549. In addition, the values for the GI50 in the test on SF-295 and in the test with A498 were 0.13 µM (active) and 0.791 µM (active), respectively.
Regarding `CCCCCCCCCCCCCCCCCCOCC(COCCOCC[N+]1(CCCCCC(=O)[O-])CCCC1)Oc1ncccn1` (stereo not given), the GI50 in the test with MDA-N is 10.5 µM (inactive); with NCI-H460 it was 2.36 µM (inactive); in the test with CAKI-1 it was 9.51 µM (inactive); in the test with UACC-62 it was 3.35 µM (inactive); in the test on LOX IMVI, 2.88 µM (inactive); in the test on NCI-H23, 4.88 µM (inactive). Further, the GI50 is 2.2 µM (inactive) in the test on OVCAR-4; 4.22 µM (inactive) with SK-MEL-5; 2.61 µM (inactive) in the test with SNB-75; 7.23 µM (inactive) in the test on 786-0; 4.44 µM (inactive) in the test with SN12C; 2.59 µM (inactive) with CCRF-CEM. Moreover, the GI50 is 2.51 µM (inactive) with HCC 2998; 0.395 µM (active) in the test with HL-60; 3.18 µM (inactive) in the test with SR; 7.29 µM (inactive) in the test on BT-549; 4.45 µM (inactive) in the test with MCF7; 3.95 µM (inactive) with A549. The GI50 is 4.88 µM (inactive) in the test on SF-295 and 5.94 µM (inactive) in the test on A498.
As to `C=C(Br)C(Br)(CCl)CCC(Cl)C(C)C.C=C(Cl)C(Br)(CCl)CCC(Cl)C(C)C` (stereo not given), the GI50 is 1.71 µM (inactive) in the test on MDA-N; 1.57 µM (inactive) with NCI-H460; 2.81 µM (inactive) in the test with CAKI-1; 1.31 µM (inactive) in the test on UACC-62; 0.299 µM (active) with LOX IMVI; 1.79 µM (inactive) with NCI-H23. For the same molecule, the GI50 with OVCAR-4 was 1.94 µM (inactive); in the test with SK-MEL-5, 1.82 µM (inactive); with SNB-75, 0.889 µM (active); with 786-0 it was 1.36 µM (inactive); in the test with SN12C, 1.66 µM (inactive); in the test with CCRF-CEM, 0.254 µM (active). Besides, the GI50 was 3.01 µM (inactive) in the test on HCC 2998; 0.413 µM (active) in the test with HL-60; 0.442 µM (active) with SR; 1.7 µM (inactive) in the test with BT-549; 1.94 µM (inactive) in the test on MCF7; 14.8 µM (inactive) in the test on A549. Besides, the figures for the GI50 in the test with SF-295 and in the test with A498 were 6.92 µM (inactive) and 17.7 µM (inactive), respectively.
For `CC(=O)NC1C(OCc2ccccc2)OC(CO)C(O)C1OC(C)C(=O)NC(C(=O)NC(CCC(=O)NCCCC(=O)Nc1ccc2c(c1)CN1C(=O)c3ccccc3C1=N2)C(N)=O)C(C)C` (stereo not given), the GI50 with MDA-N, in the test on NCI-H460, with CAKI-1, with UACC-62, with LOX IMVI and in the test with NCI-H23 was > 100 µM (inactive) throughout. For the same molecule, the GI50 with OVCAR-4, in the test with SK-MEL-5, with SNB-75, in the test on 786-0, in the test on SN12C and in the test with CCRF-CEM was > 100 µM (inactive) throughout. For the same molecule, the GI50 with HCC 2998, in the test on HL-60, in the test on SR, in the test on BT-549, in the test with MCF7 and in the test on A549 was > 100 µM (inactive) each time. Also, the GI50 with SF-295 and in the test on A498 was > 100 µM (inactive) throughout.
As for `CCOC(=O)/C(=C\NCC(O)c1ccccc1)c1nc2ccccc2[nH]1` (stereo not given), the GI50 with MDA-N is 27.5 µM (inactive); in the test on NCI-H460, 17.2 µM (inactive); with CAKI-1, 32.4 µM (inactive); with UACC-62 it was 14.2 µM (inactive); in the test with LOX IMVI it was 19.5 µM (inactive); in the test on NCI-H23, 18.1 µM (inactive). For the same molecule, the GI50 with OVCAR-4 is 23.8 µM (inactive); in the test with SK-MEL-5 it was 11 µM (inactive); in the test with SNB-75, 24.2 µM (inactive); in the test with 786-0, 27.5 µM (inactive); with SN12C, 31.9 µM (inactive); in the test with CCRF-CEM, 13.6 µM (inactive). For the same molecule, the GI50 was 20.4 µM (inactive) in the test on HCC 2998; 13.6 µM (inactive) with HL-60; 17.5 µM (inactive) in the test with SR; 29.9 µM (inactive) in the test with BT-549; 18.7 µM (inactive) in the test on MCF7; 33.7 µM (inactive) in the test on A549. Also, the results for the GI50 in the test with SF-295 and in the test with A498 were 24.8 µM (inactive) and 20.1 µM (inactive), respectively.
`O=c1[nH]nc(-c2ccccc2)n1/N=C/c1ccc([N+](=O)[O-])o1`: the GI50 in the test with MDA-N is 3.25 µM (inactive); in the test with NCI-H460 it was 5.12 µM (inactive); in the test with CAKI-1, 7.13 µM (inactive); in the test on UACC-62, 5.21 µM (inactive); with LOX IMVI it was 3.34 µM (inactive); in the test with NCI-H23, 5.9 µM (inactive). For the same molecule, the GI50 is 6.65 µM (inactive) with OVCAR-4; 14.8 µM (inactive) in the test on SK-MEL-5; 16 µM (inactive) in the test with SNB-75; 4.88 µM (inactive) in the test with 786-0; 4.37 µM (inactive) in the test on SN12C; 1.09 µM (active) with CCRF-CEM. For the same molecule, the GI50 in the test with HCC 2998 is 5.26 µM (inactive); with HL-60, 8.89 µM (inactive); in the test with SR, 1.08 µM (active); in the test with BT-549 it was 6 µM (inactive); in the test with MCF7 it was 2.04 µM (inactive); with A549, 7.66 µM (inactive). Further, the GI50 is 10.4 µM (inactive) in the test with SF-295 and 9.12 µM (inactive) in the test with A498.
In the case of `Cn1c2ccccc2n2c3ncccc3/c(=N/CCCC(=O)O)c(C#N)c12`, the GI50 with MDA-N, in the test with NCI-H460, in the test on CAKI-1, in the test on UACC-62, with LOX IMVI and in the test with NCI-H23 was > 100 µM (inactive) in each case. The GI50 in the test with OVCAR-4, in the test with SK-MEL-5, in the test on SNB-75, in the test on 786-0, with SN12C and in the test on CCRF-CEM was > 100 µM (inactive) each time. The GI50 in the test with HCC 2998, in the test with HL-60, in the test with SR, in the test with BT-549, in the test on MCF7 and with A549 was > 100 µM (inactive) in each case. The GI50 in the test on SF-295 and in the test with A498 was > 100 µM (inactive) each time.

The values above are taken from ChEMBL document CHEMBL1201862, “PubChem BioAssay data set” (2004).
